Assay results: patent EP4371976B1, “IONIZABLE LIPIDS AND LIPID NANOPARTICLES CONTAINING THEREOF” (Certest Biotec, S.L., priority 2022, dated 2024)

Key:
[1] = Apparent pKa of LNPs comprising the ionizable lipid (Table 6); conditions: standard formulation 50:10:38.5:1.5
Female BALB/c mice = assay: Firefly luciferase expression (total flux, IVIS imaging) in mice after injection of mRNA-loaded LNPs; assay type: in vivo; conditions: for Total Flux: Table 8, mice, intramuscular, 5 µg luciferase mRNA in 50 µl, LNP 50:10:38.5:1.5
Method: For in vivo administration, mRNA comprising in the 5' to 3' direction a sequence encoding for luciferase of SEQ ID NO:1, was encapsulated into LNPs following the procedure described in Hassett, K. J. et al., "Optimization of Lipid Nanoparticles for Intramuscular Administration of mRNA Vaccines", 2019, Mol. Ther. Nucleic Acid, vol. 15, pp. 1-11. Briefly, the purified mRNAs were first diluted in sodium citrate buffer at pH=4 at a final concentration of 266 µg/ml. Separately, a mixture of the ionizable lipid of the invention:DSPC (Merk 850365P):cholesterol (Sigma C3045):DMG-PEG2000 (Cayman 33945-1) were dissolved into ethanol at the respective molar percentages of 50:10:38.5:1.5, and with a lipid-nitrogen-to-phosphate ratio (N:P) ratio of 5,5:1.
The mRNA aqueous solution was then carefully added to the ethanol solution, and the resulted solution was homogenized by pipetting up and down for 4-5 times. The resulting LNPs were immediately diluted 1:1 with Tris buffer and dialyzed overnight against Tris buffer containing 15% sucrose. The resulting LNP solution was then collected, and the encapsulated mRNA was assessed by Quant-IT® Ribogreen (Invitrogen R11490) following the manufacturer's instructions.
Female BALB/c mice (Charles River Laboratories), 8-10-week-old, weighting 18-23 g, were acclimatized to new conditions upon arrival to experimental facilities for 3-7 days. Housing conditions were room temperature 20-24 °C, humidity 50-70 %, and light intensity 60 lux with a light-dark cycle of 12 hours.
For Firefly Luciferase activity measurement in mice, LNPs produced as indicated above (ionizable lipid:helper lipid: sterol:PEG-modified lipid → 50:10:38.5:1.5) and containing 5 µg of the indicated mRNA in 50 µl final volume, were injected intramuscularly.
From 4 to 72 hours after RNA-LPN inoculation mice were anaesthetized by inhalation with 4% of isoflurane using a vaporizer. The maintenance of the anaesthesia was performed at 1.5% of isoflurane. Then, D-luciferin (Quimigen, 12507) was injected intraperitoneally at 150 mg/kg, normally ~200 µL of the stock at 15 mg/mL in PBS for a 20 g mouse. Luciferase images were acquired 10 minutes after luciferin inoculation using the IVIS Lumina XRMS Imaging System following manufacturer's instructions.

[2] = RNA encapsulation efficiency of LNPs by Quant-IT Ribogreen; assay type: physicochemical; conditions: for Encaps. efficiency (%): LNPs with luciferase mRNA, ionizable lipid:non-cationic lipid:sterol:PEG-modified lipid 50:10:38.5:1.5, percentage of RNA entrapped in the LNP; for Encaps. efficiency: Table 8, LNP 50:10:38.5:1.5, luciferase mRNA
Procedure, shortened: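 Ribogreen dye assay per manufacturer quantified encapsulated mRNA. Particles were made by adding mRNA in water to the ethanol phase, then 1:1 Tris dilution and overnight dialysis into Tris/15% sucrose; final mRNA set to 100 µg/ml.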

[3] = Size distribution, polydispersity and Z-potential of LNPs by dynamic light scattering (Malvern Zetasizer); assay type: physicochemical; conditions: LNPs, standard formulation 50:10:38.5:1.5; DLS
Method: The LNP solution was then adjusted to a final concentration of mRNA of 100 µg/ml. Size distribution, polydispersity and Z-potential were measured by dynamic light scattering (DLS) using Malvern Zetasizer Advance Lab Blue Label. RNA encapsulation was assessed by Quant-IT® Ribogreen following the manufacturer's instructions.

| Compound | Apparent pKa [1] | Total Flux (Female BALB/c mice) [p·s^-1] | Encaps. efficiency (%) [2] [%] | Encaps. efficiency [2] [%] | P.D.I. [3] | Particle size/ Ø (nm) [3] [nm] | Z Potential (± D.E.) [mV] [3] [mV] | protein expression in mice (transfection results) (Female BALB/c mice; Figure 1 legend, LNPs containing RNA) |
| --- | --- | --- | --- | --- | --- | --- | --- | --- |
| CCCCCCCCC(CCCCCC)COC(=O)CCSCCC(NC(=O)C(CCCCCC)CCCCCCCC)C(=O)NCC1CCN(C)CC1 (stereo not drawn) [VC-LC-0491] | 7.07 | 2.37E+07 | 72.06 | 72.1 | 0.17 | 160.8 | -3.40 | – |
| CCCCCCCCCCCCCOC(=O)CCSCCC(NC(=O)C(CCCCCCCC)CCCCCCCCCC)C(=O)NCC1CCN(C)CC1 (stereo not drawn) [VC-LC-0507] | – | 2.29E+07 | 95.15 | 95.2 | 0.13 | 151.1 | -2.76 | – |
| CCCCCCCCCCCCC(CCCCCCCCCC)COC(=O)CCSCCC(NC(=O)C(CCCCCCCC)CCCCCCCCCC)C(=O)NCC1CCN(C)CC1 (stereo not drawn) [VC-LC-0521] | – | 1.1E+08 | 52.01 | 52.01 | 0.071 | 153.1 | -4.50 | – |
| CCCCCCCCCCCCCOC(=O)CCSCC(CC(=O)NCCCN1CCOCC1)C(=O)OC(CCCCCCCC)CCCCCCCC (stereo not drawn) [VC-LC-0540] | – | 1.3E+08 | 43.65 | 43.65 | 0.11 | 140.3 | -8.47 | – |
| CCCCCCCCCCCCCCCCCCOC(=O)CCSCC(CC(=O)NCCCN1CCOCC1)C(=O)OC(CCCCCCCC)CCCCCCCC (stereo not drawn) [VC-LC-0546] | – | 2.54E+07 | 39.62 | 39.6 | 0.14 | 164.2 | -10.43 | – |
| CCCCCCCCCCCCCCCCOC(=O)CCSCC(CC(=O)NCCCN1CCOCC1)C(=O)OC(CCCCCCCC)CCCCCCCC (stereo not drawn) [VC-LC-0547] | – | 1.1E+08 | 31.52 | 31.52 | 0.18 | 168 | -13.52 | – |
| CCCCCCCCC(CCCCCCCC)OC(=O)C(CSCCC(=O)OCCCCCC(C)C)CC(=O)NCCCN1CCOCC1 (stereo not drawn) [VC-LC-0548] | – | 1.2E+08 | 30.22 | 30.22 | 0.17 | 145.5 | -8.82 | – |
| CCCCCCCCCCCCCCCCCCCCCCOC(=O)CCSCC(CC(=O)NCCCN1CCOCC1)C(=O)OC(CCCCCCCC)CCCCCCCC (stereo not drawn) [VC-LC-0549] | – | 2.5E+07 | 36.38 | 36.38 | 0.27 | 194.9 | -16.95 | – |
| CCCCCCCCCCCCC(CCCCCCCCCC)COC(=O)CCSCC(CC(=O)NCCCN1CCOCC1)C(=O)OC(CCCCCCCC)CCCCCCCC (stereo not drawn) [VC-LC-0553] | – | – | 36.11 | – | 0.22 | 196.2 | -8.66 | good transfection results |
| CCCCCCCCCCC(CCCCCCCC)C(=O)NC(CCSCCC(=O)OCC(CCCCCC)CCCCCCCC)C(=O)NC1CCN(C)CC1 (stereo not drawn) [VC-LC-0557] | – | 4.3E+07 | 77.19 | 77.2 | 0.11 | 142.5 | -6.12 | – |
